Measured values published in patent publication US7977362B2, “Alpha-(N-benzenesulfonamido)cycloalkyl derivatives” (Bristol-Myers Squibb Company, priority 2009, dated 2011).

System: Aβ formation (γ-secretase) in H4 cells stably transfected to overexpress the HPLAP-APP fusion protein
Experiment: In vitro assay based on the inhibition of Aβ formation in cultured cells
Type: cell-based, human
Conditions: H4 cells overexpressing HPLAP-APP, 18 hrs incubation at 37° C., Aβ in supernatant by time-resolved fluorescence; class symbols
Method: Cultured human cell lines, such as HEK293 and H4 cells, which express APP and γ-secretase activity or transfected derivative cell lines that overexpress wild-type APP, mutant APP, or APP fusion proteins will secrete Aβ peptides into the culture media that can be quantified as previously outlined (Dovey, H. et al., J. Neurochem., 76:173-181 (2001)). The incubation of these cultured cells with γ-secretase inhibitors decreases the production of Aβ peptides. For instance, H4 cells stably transfected to overexpress the HPLAP-APP fusion protein described above were grown as above, detached, and adjusted to 2×10^5 cells/ml. 100 μl of the resulting suspension was then added to each well of a 96-well plate. After 4 hrs, the media was removed and replaced with 100 μl serum-free media containing various dilutions of the test compound. Plates were then incubated for 18 hrs at 37° C. and a 100 μl aliquot of the tissue culture supernatant was removed for determination of Aβ levels using time-resolved fluorescence of the homogenous sample as outlined above. Alternately, the other methods described above for Aβ determination could be used. The extent of Aβ inhibition was used to calculate the IC50 value for the test compound.
In the table, an inhibitory concentration (IC50) of less than or equal to 50 nM is represented by +++; between 50 nM and 500 nM by ++; between 500 nM and 5000 nM by +.

Row | IC50 | Structure (SMILES)
1 | ≤ 50 nM | O=S(=O)(c1ccc(Cl)cc1)N(Cc1ccc(-c2ncon2)cc1)[C@@H]1CCCC[C@H]1CO (single isomer, unassigned) [Compound 7, N-(4-(1,2,4-oxadiazol-3-yl)benzyl)-4-chloro-N-(trans-2-(hydroxymethyl)cyclohexyl)benzenesulfonamide]
2 | ≤ 50 nM | O=S(=O)(c1ccc(Cl)cc1)N(Cc1ccc(-c2ncco2)c(F)c1F)[C@@H]1CCCC[C@H]1CO [Compound 16, 4-Chloro-N-(2,3-difluoro-4-(oxazol-2-yl)benzyl)-N-((1R,2R)-2-(hydroxymethyl)cyclohexyl)benzenesulfonamide]
3 | ≤ 50 nM | O=S(=O)(c1ccc(Cl)cc1)N(Cc1ccc(-c2ncon2)cc1)[C@@H]1CCCC[C@H]1CO [Compound 17, N-(4-(1,2,4-Oxadiazol-3-yl)benzyl)-4-chloro-N-((1R,2R)-2-(hydroxymethyl)cyclohexyl)benzenesulfonamide]

Same assay, conditions: H4 cells overexpressing HPLAP-APP, 18 hrs incubation at 37° C., Aβ in supernatant by time-resolved fluorescence; numeric values

Row | IC50 | Structure (SMILES)
4 | 0.32 nM | O=S(=O)(c1ccc(Cl)cc1)N(Cc1cc(F)c(-c2ncon2)cc1F)[C@@H]1CCCC[C@H]1CO (relative stereo) [Compound 11, 4-Chloro-N-(2,5-difluoro-4-(1,2,4-oxadiazol-3-yl)benzyl)-N-(trans-2-(hydroxymethyl)cyclohexyl)benzenesulfonamide]
5 | 0.15 nM | O=S(=O)(c1ccc(Cl)cc1)N(Cc1cc(F)c(-c2ncon2)cc1F)[C@@H]1CCCC[C@H]1CO [Compound 21, 4-Chloro-N-(2,5-difluoro-4-(1,2,4-oxadiazol-3-yl)benzyl)-N-((1R,2R)-2-(hydroxymethyl)cyclohexyl)benzenesulfonamide]

Same assay, conditions: Homo sapiens, 18 h, H4 cells overexpressing HPLAP-APP, 18 hrs incubation at 37° C., Aβ in supernatant by time-resolved fluorescence; class symbols

Row | IC50 | Structure (SMILES)
6 | 50 to 500 nM | O=S(=O)(c1ccc(Cl)cc1)N(Cc1ccc(-c2ncco2)cc1)[C@@H]1CCC[C@H]1CO (relative stereo) [Compound 1, 4-Chloro-N-(trans-2-(hydroxymethyl)cyclopentyl)-N-(4-(oxazol-2-yl)benzyl)benzenesulfonamide]
7 | 50 to 500 nM | O=S(=O)(c1ccc(Cl)cc1)N(Cc1ccc(-c2ncon2)cc1)[C@@H]1CCC[C@H]1CO (relative stereo) [Compound 2, N-(4-(1,2,4-Oxadiazol-3-yl)benzyl)-4-chloro-N-(trans-2-(hydroxymethyl)cyclopentyl)benzenesulfonamide]
8 | 50 to 500 nM | O=S(=O)(c1ccc(Cl)cc1)N(Cc1ccc(-c2ncon2)cc1)[C@@H]1CCC[C@@H]1CO (relative stereo) [Compound 4, N-(4-(1,2,4-Oxadiazol-3-yl)benzyl)-4-chloro-N-(cis-2-(hydroxymethyl)cyclopentyl)benzenesulfonamide]
9 | ≤ 50 nM | O=S(=O)(c1ccc(Cl)cc1)N(Cc1ccc(-c2ncon2)cc1)[C@@H]1CCCC[C@H]1CO (relative stereo) [Compound 5, N-(4-(1,2,4-Oxadiazol-3-yl)benzyl)-4-chloro-N-(trans-2-(hydroxymethyl)cyclohexyl)benzenesulfonamide]
10 | ≤ 50 nM | O=S(=O)(c1ccc(Cl)cc1)N(Cc1ccc(-c2ncon2)cc1F)[C@@H]1CCCC[C@H]1CO (relative stereo) [Compound 8, 4-Chloro-N-(2-fluoro-4-(1,2,4-oxadiazol-3-yl)benzyl)-N-(trans-2-(hydroxymethyl)cyclohexyl)benzenesulfonamide]
11 | ≤ 50 nM | O=S(=O)(c1ccc(Cl)cc1)N(Cc1ccc(-c2ncco2)c(F)c1F)[C@@H]1CCCC[C@H]1CO (relative stereo) [Compound 9, 4-Chloro-N-(2,3-difluoro-4-(oxazol-2-yl)benzyl)-N-(trans-2-(hydroxymethyl)cyclohexyl)benzenesulfonamide]
12 | ≤ 50 nM | N#Cc1cc(F)c(CN([C@@H]2CCCC[C@H]2CO)S(=O)(=O)c2ccc(Cl)cc2)cc1F (relative stereo) [Compound 10, 4-Chloro-N-(4-cyano-2,5-difluorobenzyl)-N-(trans-2-(hydroxymethyl)cyclohexyl)benzenesulfonamide]
13 | ≤ 50 nM | O=S(=O)(c1ccc(Cl)s1)N(Cc1ccc(-c2ncon2)cc1)[C@@H]1CCCC[C@H]1CO (relative stereo) [Compound 12, N-(4-(1,2,4-Oxadiazol-3-yl)benzyl)-5-chloro-N-(trans-2-(hydroxymethyl)cyclohexyl)thiophene-2-sulfonamide]
14 | ≤ 50 nM | O=S(=O)(c1ccc(Cl)s1)N(Cc1ccc(-c2ncco2)c(F)c1F)[C@@H]1CCCC[C@H]1CO (relative stereo) [Compound 13, 5-Chloro-N-(2,3-difluoro-4-(oxazol-2-yl)benzyl)-N-(trans-2-(hydroxymethyl)cyclohexyl)thiophene-2-sulfonamide]
15 | ≤ 50 nM | O=S(=O)(c1ccc(C(F)(F)F)nc1)N(Cc1ccc(-c2ncco2)c(F)c1F)[C@@H]1CCCC[C@H]1CO (relative stereo) [Compound 27, N-(2,3-Difluoro-4-(oxazol-2-yl)benzyl)-N-(trans-2-(hydroxymethyl)cyclohexyl)-6-(trifluoromethyl)pyridine-3-sulfonamide]
16 | ≤ 50 nM | N#Cc1ccc(CN([C@@H]2CCCCC[C@H]2CO)S(=O)(=O)c2ccc(Cl)cc2)cc1 (relative stereo) [Compound 28, 4-Chloro-N-(4-cyanobenzyl)-N-(trans-2-(hydroxymethyl)cycloheptyl)benzenesulfonamide]
17 | ≤ 50 nM | O=S(=O)(c1ccc(Cl)cc1)N(Cc1ccc(-c2ncon2)cc1)[C@@H]1CCCCC[C@H]1CO (relative stereo) [Compound 29, N-(4-(1,2,4-Oxadiazol-3-yl)benzyl)-4-chloro-N-(trans-2-(hydroxymethyl)cycloheptyl)benzenesulfonamide]
18 | ≤ 50 nM | O=S(=O)(c1ccc(Cl)cc1)N(Cc1ccc(-c2ncco2)cc1)[C@@H]1CCCCC[C@H]1CO (relative stereo) [Compound 30, 4-Chloro-N-(trans-2-(hydroxymethyl)cycloheptyl)-N-(4-(oxazol-2-yl)benzyl)benzenesulfonamide]
19 | 50 to 500 nM | O=S(=O)(c1ccc(Cl)cc1)N(Cc1ccc(-c2ncco2)cc1)[C@@H]1CCCCC[C@@H]1CO (relative stereo) [Compound 31, 4-Chloro-N-(cis-2-(hydroxymethyl)cycloheptyl)-N-(4-(oxazol-2-yl)benzyl)benzenesulfonamide]
20 | ≤ 50 nM | O=S(=O)(c1ccc(Cl)cc1)N(Cc1ccc(-c2ncon2)cc1)[C@@H]1CCCCC[C@@H]1CO (relative stereo) [Compound 32, N-(4-(1,2,4-Oxadiazol-3-yl)benzyl)-4-chloro-N-(cis-2-(hydroxymethyl)cycloheptyl)benzenesulfonamide]
21 | ≤ 50 nM | O=S(=O)(c1ccc(Cl)cc1)N(Cc1ccc(-c2ncon2)cc1)[C@@H]1CCCC[C@H]1CO (single isomer, unassigned) [Compound 6, N-(4-(1,2,4-oxadiazol-3-yl)benzyl)-4-chloro-N-(trans-2-(hydroxymethyl)cyclohexyl)benzenesulfonamide]
22 | 500 to 5000 nM | O=S(=O)(N[C@H]1CCCC[C@@H]1CO)c1ccc(Cl)cc1 (single isomer, unassigned) [Compound 14]
23 | 500 to 5000 nM | O=S(=O)(N[C@@H]1CCCC[C@H]1CO)c1ccc(Cl)cc1 (single isomer, unassigned) [Compound 15]
24 | ≤ 50 nM | CC(O)[C@@H]1CCCC[C@H]1N(Cc1ccc(-c2ncco2)cc1F)S(=O)(=O)c1ccc(Cl)cc1 (single isomer, unassigned) [Compound 25]
25 | ≤ 50 nM | O=S(=O)(c1ccc(Cl)cc1)N(Cc1ccc(-c2ncco2)cc1)[C@@H]1CCCC[C@H]1CO [Compound 18, 4-Chloro-N-((1R,2R)-2-(hydroxymethyl)cyclohexyl)-N-(4-(oxazol-2-yl)benzyl)benzenesulfonamide]
26 | ≤ 50 nM | O=S(=O)(c1ccc(Cl)cc1)N(Cc1ccc(-c2ncco2)cc1F)[C@@H]1CCCC[C@H]1CO [Compound 19, 4-Chloro-N-(2-fluoro-4-(oxazol-2-yl)benzyl)-N-((1R,2R)-2-(hydroxymethyl)cyclohexyl)benzenesulfonamide]
27 | ≤ 50 nM | O=S(=O)(c1ccc(Cl)cc1)N(Cc1cc(F)c(-c2ncco2)cc1F)[C@@H]1CCCC[C@H]1CO [Compound 20, 4-Chloro-N-(2,5-difluoro-4-(oxazol-2-yl)benzyl)-N-((1R,2R)-2-(hydroxymethyl)cyclohexyl)benzenesulfonamide]
28 | ≤ 50 nM | O=S(=O)(c1ccc(Cl)cc1)N(Cc1ccc(-c2ncco2)cc1F)[C@@H]1CCCC[C@H]1CF [Compound 22, 4-Chloro-N-(2-fluoro-4-(oxazol-2-yl)benzyl)-N-((1R,2R)-2-(fluoromethyl)cyclohexyl)benzenesulfonamide]

Same assay, conditions: Homo sapiens, 18 h, H4 cells overexpressing HPLAP-APP, 18 hrs incubation at 37° C., Aβ in supernatant by time-resolved fluorescence; numeric values

Row | IC50 | Structure (SMILES)
29 | 223 nM | O=S(=O)(c1ccc(Cl)cc1)N(Cc1ccc(-c2ncco2)cc1)[C@@H]1CCC[C@@H]1CO (relative stereo) [Compound 3, 4-Chloro-N-(cis-2-(hydroxymethyl)cyclopentyl)-N-(4-(oxazol-2-yl)benzyl)benzenesulfonamide]
30 | 2300 nM | CC(O)[C@@H]1CCCC[C@H]1N(Cc1ccc(-c2ncco2)cc1F)S(=O)(=O)c1ccc(Cl)cc1 (single isomer, unassigned) [Compound 24]
